Results: patent US6215002A, “Pyrrolopyrrolone derivatives as inhibitors of neutrophil elastase” (priority 1996, dated 2001)
Structures can show the parent of a compound that is named as a salt.

The compounds below were run on Intracellular elastase (assay: Oral in vivo model using IL-8 induced lung infiltrates for the assessment of intracellular elastase inhibition (hamster test)). Settings: effective dose of less than 40 mg/kg, IL-8 intratracheal.
Protocol: An Oral in vivo Model Using IL-8 Induced Lung Infiltrates For the Assessment of Intracellular Elastase Inhibition
Adult hamsters (100-150 g) are randomised into groups (n=4) and fasted overnight. Under gaseous anaesthetic (3% isofluorane) animals are dosed orally with 1 mL/100 g water as vehicle or containing predissolved compounds. Either at the same time, or subsequently under anaesthetic, animals are dosed intratracheally with 1 ug recombinant human IL-8 in 100 uL sterile saline. Six hours after IL-8 dosing animals are sacrificed using intrapertoneal pentobarbitone. The lungs are ravaged with 2×2.5 mL sterile saline and femurs are removed by dissection.
Intracellular elastase is prepared from neutrophils collected by lavage and from femoral bone marrow. This is achieved by sonication of the neutrophils and centrifugation to yield intracellular granules. These are disrupted by freeze/thawing and sonication. Elastase and myeloperoxidase assays are then performed on these samples to assess the efficacy of the compounds and to normalise for neutrophil recovery.
With `CC(C)[C@@H]1C(=O)N(S(C)(=O)=O)[C@@H]2CCN(C(=O)/C=C/CN3CCCCC3)[C@H]21.Cl` [Example 154, (3S,3aS,6aR)-3-Isopropyl-1-methanesulfonyl-4-(4-piperidin-1-yl-but-2E-enoyl)-hexahydro-pyrrolo[3,2-b]pyrrol-2-one hydrochloride] the duration of effect was “at least 6 hours”.

The compounds below were run against T1, human neutrophil elastase (Homo sapiens, UniProt P08246) (assay: In vitro assay of human neutrophil elastase (HNE)). Settings: 118 nM purified human neutrophil elastase, pH 8.6, 15 min incubation at 30° C., MeO-succinyl-alanyl-alanyl-prolyl-valyl-p-nitroanilide substrate; read-out: HNE IC50.
T1 sequence (P08246 30-267): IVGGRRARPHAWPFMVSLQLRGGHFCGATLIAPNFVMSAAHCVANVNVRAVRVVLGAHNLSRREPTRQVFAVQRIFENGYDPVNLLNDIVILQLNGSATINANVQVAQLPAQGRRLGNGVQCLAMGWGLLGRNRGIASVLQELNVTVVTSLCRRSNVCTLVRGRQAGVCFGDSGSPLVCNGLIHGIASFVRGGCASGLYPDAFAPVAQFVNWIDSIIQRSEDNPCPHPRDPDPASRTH
Type: biochemical
Procedure, shortened: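 Residual activity was taken as the 10 min rate of absorbance rise at 405 nm after adding 0.6 mM MeO-succinyl-AAPV-p-nitroanilide. Curve fitting of activity against concentration gave IC50.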
`CCC[C@H]1C(=O)N(S(C)(=O)=O)[C@H]2CCN(S(=O)(=O)c3cc(C(F)(F)F)cc(C(F)(F)F)c3)[C@H]12` (relative stereo) [Example 224, rel-(3R,3aR,6aS)-4-(3,5-Bis-trifluoromethyl-benzenesulfonyl)-1-methanesulfonyl-3-propyl-hexahydro-pyrrolo[3,2-b]pyrrol-2-one] was tested, and the IC50 was 410 nM. Work on `CCC[C@H]1C(=O)N(S(=O)(=O)c2ccc(Cl)cc2)[C@H]2CCN(C(=O)CCCCCN3CCCCC3)[C@H]12` (relative stereo) [Example 207, rel-(3R,3aR,6aS)-1-(4-Chloro-benzenesulfonyl)-4-(6-piperidin-1-yl-hexanoyl)-3-propyl-hexahydro-pyrrolo[3,2-b]pyrrol-2-one DL-tartrate] yielded an IC50 of 38 nM. Work on `CCC[C@H]1C(=O)N(S(C)(=O)=O)[C@H]2CCN(C(=O)CCCCCN(CC)CC)[C@H]12` (relative stereo) [Example 76, rel-(3R,3aR,6aS)-4-(6-Diethylamino-hexanoyl)-1-methanesulfonyl-3-propyl-hexahydro-pyrrolo[3,2-b]pyrrol-2-one DL-tartrate] yielded an IC50 of 176 nM. For `CCC[C@H]1C(=O)N(S(C)(=O)=O)[C@H]2CCN(S(=O)(=O)c3ccc(C(=O)N(C)C)cc3)[C@H]12` (relative stereo) [Example 126, rel-4-(4-Methanesulfonyl-5-oxo-6R-propyl-hexahydro-(3aS,6aR)-pyrrolo[3,2-b]pyrrole-1-sulfonyl)-N,N-dimethyl-benzamide], the IC50 was 10 nM. With `CC(C)[C@H]1C(=O)N(S(C)(=O)=O)[C@H]2CCN(S(=O)(=O)c3ccc(CN4CCCCC4)cc3)[C@H]12` (relative stereo) [Example 198, rel-(3R,3aR,6aS)-3-Isopropyl-1-methanesulfonyl-(4-piperidin-1-ylmethyl-benzenesulfonyl)-hexahydro-pyrrolo[3,2-b]pyrrol-2-one hydrochloride] the IC50 was 127 nM. With `CCC[C@H]1C(=O)N(S(=O)(=O)c2cccc3cnccc23)[C@H]2CCN(S(C)(=O)=O)[C@H]12` (relative stereo) [Example 51, rel-(3R,3aR,6aS)-1-(Isoquinoline-5-sulfonyl)-4-methanesulfonyl-3-propyl-hexahydro-pyrrolo[3,2-b]pyrrol-2-one] the IC50 was 55 nM. Work on `CCC[C@H]1C(=O)N(S(C)(=O)=O)[C@H]2CCN(C(=O)/C=C/C(=O)O)[C@H]12` (relative stereo) [Example 129, rel-4-(4-Methanesulfonyl-5-oxo-6R-propyl-hexahydro-(3aS,6aR)-pyrrolo[3,2-b]pyrrol-1-yl)-oxo-but-2-E-enoic acid] yielded an IC50 of 14 nM. `CCC[C@H]1C(=O)N(S(=O)(=O)C(C)C)[C@H]2CCN(C(=O)CCN3CCCCC3)[C@H]12` (relative stereo) [Example 161, rel-(3R,3aR,6aS)-4-(3Piperidin-1-yl-propionyl)-1-(propane-2-sulfonyl)-3-propyl-hexahydro-pyrrol[3,2-b]pyrrol-2-one DL-tartrate] was tested, and the IC50 was 1030 nM. In the case of `C=CC[C@H]1C(=O)N(S(=O)(=O)c2ccccc2)[C@H]2CCN(C(=O)OCc3ccccc3)[C@H]12` (relative stereo) [Example 45, rel-(3aS,6R,6aR)-6-Allyl-4-benzenesulfonyl-5-oxo-hexahydro-pyrrolo[3,2-b]pyrrole-1-carboxylic acid benzyl ester], the IC50 is reported as 531 nM. For `CC(C)[C@H]1C(=O)N(S(C)(=O)=O)[C@H]2CCN(S(=O)(=O)c3ccc(C(F)(F)F)cc3)[C@H]12` (relative stereo) [Example 228, rel-(3R,3aR,6aS)-3-Isopropyl-1-methanesulfony]4-(4-trifluoromethyl-benzenesulfonyl)-hexahydro-pyrrolo[3,2-b]pyrrol-2-one], the IC50 was 68 nM. Work on `CCC[C@H]1C(=O)N(S(C)(=O)=O)[C@H]2CCN(S(=O)(=O)c3cccc(C(F)(F)F)c3)[C@H]12` (relative stereo) [Example 223, rel-(3R,3aR,6aS)-1-Methanesulfonyl-3-propyl-4-(3-trifluoromethyl-benzenesulfonyl)-hexahydro-pyrrolo[3,2-b]pyrrol-2-one] yielded an IC50 of 62 nM. `C=CC[C@H]1C(=O)N(S(=O)(=O)c2ccc3ccccc3c2)[C@H]2CCN(C(=O)OCc3ccccc3)[C@H]12` (relative stereo) [Example 1, rel-(3aS,6R,6aR)-6-Allyl-4-(naphthalene-2-sulfonyl)-5-oxo-hexahydro-pyrrolo[3,2-b]pyrrole-1-carboxylic acid benzyl ester] showed an IC50 of 36 nM. In the case of `CCC[C@H]1C(=O)N(S(=O)(=O)c2ccc([N+](=O)[O-])cc2)[C@H]2CCN(C(=O)CCCCCN3CCCCC3)[C@H]12` (relative stereo) [Example 203, rel-(3R,3aR,6aS)-1-(4-Nitro-benzenesulfonyl)-4-(6-piperidin-1-yl-hexanoyl)-3-propyl-hexahydro-pyrrolo[3,2-b]pyrrol-2-one DL-tartrate], the IC50 is reported as 38 nM. In the case of `CCC[C@H]1C(=O)N(S(C)(=O)=O)[C@H]2CCN(S(=O)(=O)Cc3cccc(-c4nnn[nH]4)c3)[C@H]12` (relative stereo) [Example 27, rel-(3R,3aR,6aS)-1-Methanesulfonyl-3-propyl-4-[3-(1H-tetrazol-5-yl)-phenylmethanesulfonyl]-hexahydro-pyrrolo[3,2-b]pyrrol-2-one], the IC50 is reported as 55 nM. `CCC[C@H]1C(=O)N(S(C)(=O)=O)[C@H]2CCN(S(=O)(=O)c3ccc(N(C)C)cc3)[C@H]12` (relative stereo) [Example 221, rel-(3R, 3aR,6aS)-4-[4-Dimethylamino-benzenesufonyl)-1-methanesulfonyl-3-propyl-hexahydro-pyrrolo[3,2-b]pyrrol-2-one] gave an IC50 of 27 nM. `CCC[C@H]1C(=O)N(S(C)(=O)=O)[C@H]2CCN(S(=O)(=O)c3ccc(NC(C)=O)c(Cl)c3)[C@H]12` (relative stereo) [Example 213, rel-N-[2-Chloro-4-(4-methanesulfonyl-5-oxo-6R-propyl-hexahydro-(3aS,6aR)-pyrrolo[3,2-b]pyrrole-1-sulfonyl)-phenyl]-acetamide] gave an IC50 of 40 nM. `CCC[C@H]1C(=O)N(S(=O)(=O)c2cccc3c2NCCC3)[C@H]2CCN(C(=O)OCc3ccccc3)[C@H]12` (relative stereo) [Example 50, rel-(3aS,6R,6aR)-5-Oxo-6-propyl-4-(1,2,3,4-tetrahydro-quinoline-8-sulfonyl-hexahydro-pyrrolo[3,2-b]pyrrole-1-carboxylic acid benzyl ester] was tested, and the IC50 was 362 nM. Work on `CCC[C@H]1C(=O)N(S(C)(=O)=O)[C@H]2CCN(C(=O)CCCCCN3CCCCC3)[C@H]12` (relative stereo) [Example 74, rel-(3R,3aR,6aS)-1-Methanesulfonyl-4-(6-piperidin-1-yl-hexanoyl)-3-propyl-hexahydro-pyrrolo[3,2-b]pyrrol-2-one hydrochloride] yielded an IC50 of 55 nM. Work on `CCC[C@H]1C(=O)N(S(=O)(=O)c2ccc3ccccc3c2)[C@H]2CCN(S(C)(=O)=O)[C@H]12` (relative stereo) [Example 22, rel-(3R,3aR,6aS)-4-Methanesulfonyl-1-(naphthalene-2-sulfonyl)-3-propyl-hexahydro-pyrrolo[3,2-b]pyrrol-2-one] yielded an IC50 of 60 nM. `CCC[C@H]1C(=O)N(S(C)(=O)=O)[C@H]2CCN(C(=O)CCCCCCCCCN(C)c3ccccc3)[C@H]12` (relative stereo) [Example 68, rel-(3R,3aR,6aS)-1-Methanesulfonyl-4-[10-methyl-phenyl-amino)decanoyl]-3-propyl-hexahydro-pyrrolo[3,2-b]pyrrol-2-one hydrochloride] gave an IC50 of 73 nM. Compound `CCC[C@H]1C(=O)N(S(C)(=O)=O)[C@H]2CCN(S(=O)(=O)c3ccc(CN4CCCCCC4)cc3)[C@H]12` (relative stereo) [Example 195, rel-(3R,3aR,6aS)-4-(4-Azepin-1-ylmethyl-benzenesulfonyl)-1-methanesulfonyl-3-propyl-hexahydro-pyrrolo[3,2-b]pyrrol-2-one hydrochloride] has an IC50 of 68 nM. Work on `CCC[C@H]1C(=O)N(S(C)(=O)=O)[C@H]2CCN(C(=O)CN3CCN(C)CC3)[C@H]12` (relative stereo) [Example 105, rel-(3R,3aR,6aS)-1-Methanesulfonyl-4-[(4-methyl-piperazin-1-yl)-acetyl]-3-propyl-hexahydro-pyrrolo[3,2-b]pyrrol-2-one hydrochloride] yielded an IC50 of 193 nM.

Same assay, conditions: HNE IC50, 118 nM purified human neutrophil elastase, pH 8.6, 15 min incubation at 30° C., MeO-succinyl-alanyl-alanyl-prolyl-valyl-p-nitroanilide substrate
Work on `CCC[C@H]1C(=O)N(S(C)(=O)=O)[C@H]2CCN(C(=O)CCCCCN3C4CCCC3CC4)[C@H]12` (relative stereo) [Example 75, rel-(3R,3aR,6aS)-4-(6-8-Aza-bicyclo[3.2. 1]oct-8-yl-hexanoyl)-1-methanesulfonyl-3-propyl-hexahydro-pyrrolo[3,2-b]pyrrol-2-one hydrochloride] yielded an IC50 of 33 nM.
